The results in this text go back to patent US20240217989A1, “Heteroaryl Fluoroalkenes As DGK Inhibitors” (Incyte Corporation, priority 2022, published 2024).

Usually IC50 stands for the point on the concentration scale where inhibition reaches its midpoint.

One assay addresses T1, DGKα (Homo sapiens, UniProt P23743).
T1 construct: His; purchased Signal Chem D21-10BH
The assay can be described thus: In vitro DGKα inhibition assay (ADP-Glo). The assay is classed as biochemical. The settings on record: His-tagged human recombinant enzyme; 0.1 nM DGKα, 50 μM ATP, 20 μM DLG; 90 minute incubation; ADP-Glo luminescence. The procedure, abridged:
(§1)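 His-tagged human recombinant enzymes with DLG lipid substrate (20 μM) in Tris pH 7.5 buffer with MgCl2/CaCl2; DGKα 0.1 nM with 50 μM ATP, DGKζ 0.4 nM with 30 μM ATP.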

For a further assay, the target named is DGKζ (Homo sapiens, UniProt Q13574). Put plainly: In vitro DGKζ inhibition assay (ADP-Glo). The assay is classed as biochemical. The following applies: His-tagged human recombinant enzyme; 0.4 nM DGKζ, 30 μM ATP, 20 μM DLG; 90 minute incubation; ADP-Glo luminescence. The procedure, abridged:
as §1
On the technique in general: In ADP-Glo the light output rises with the ADP produced.

T1 sequence (P23743 whole entry): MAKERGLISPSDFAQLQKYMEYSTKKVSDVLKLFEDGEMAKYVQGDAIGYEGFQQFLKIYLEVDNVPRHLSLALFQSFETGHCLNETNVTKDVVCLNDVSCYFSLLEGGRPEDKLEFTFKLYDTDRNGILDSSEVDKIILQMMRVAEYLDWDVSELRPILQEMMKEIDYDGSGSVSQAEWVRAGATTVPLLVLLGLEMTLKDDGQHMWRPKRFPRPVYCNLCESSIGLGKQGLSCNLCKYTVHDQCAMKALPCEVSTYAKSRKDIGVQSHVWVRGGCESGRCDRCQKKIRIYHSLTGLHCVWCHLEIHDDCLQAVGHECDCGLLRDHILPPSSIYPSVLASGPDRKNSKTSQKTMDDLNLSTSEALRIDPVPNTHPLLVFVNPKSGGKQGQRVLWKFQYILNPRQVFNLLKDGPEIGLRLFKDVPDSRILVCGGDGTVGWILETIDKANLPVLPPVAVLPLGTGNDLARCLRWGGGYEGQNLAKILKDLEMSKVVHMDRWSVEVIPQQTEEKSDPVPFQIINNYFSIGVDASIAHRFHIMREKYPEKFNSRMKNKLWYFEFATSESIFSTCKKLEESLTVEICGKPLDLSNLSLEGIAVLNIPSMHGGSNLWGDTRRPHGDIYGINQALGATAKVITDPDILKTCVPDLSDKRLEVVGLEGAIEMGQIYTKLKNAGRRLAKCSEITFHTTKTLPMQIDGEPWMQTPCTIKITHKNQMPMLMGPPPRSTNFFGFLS
DGKζ, sequence (Q13574 whole entry): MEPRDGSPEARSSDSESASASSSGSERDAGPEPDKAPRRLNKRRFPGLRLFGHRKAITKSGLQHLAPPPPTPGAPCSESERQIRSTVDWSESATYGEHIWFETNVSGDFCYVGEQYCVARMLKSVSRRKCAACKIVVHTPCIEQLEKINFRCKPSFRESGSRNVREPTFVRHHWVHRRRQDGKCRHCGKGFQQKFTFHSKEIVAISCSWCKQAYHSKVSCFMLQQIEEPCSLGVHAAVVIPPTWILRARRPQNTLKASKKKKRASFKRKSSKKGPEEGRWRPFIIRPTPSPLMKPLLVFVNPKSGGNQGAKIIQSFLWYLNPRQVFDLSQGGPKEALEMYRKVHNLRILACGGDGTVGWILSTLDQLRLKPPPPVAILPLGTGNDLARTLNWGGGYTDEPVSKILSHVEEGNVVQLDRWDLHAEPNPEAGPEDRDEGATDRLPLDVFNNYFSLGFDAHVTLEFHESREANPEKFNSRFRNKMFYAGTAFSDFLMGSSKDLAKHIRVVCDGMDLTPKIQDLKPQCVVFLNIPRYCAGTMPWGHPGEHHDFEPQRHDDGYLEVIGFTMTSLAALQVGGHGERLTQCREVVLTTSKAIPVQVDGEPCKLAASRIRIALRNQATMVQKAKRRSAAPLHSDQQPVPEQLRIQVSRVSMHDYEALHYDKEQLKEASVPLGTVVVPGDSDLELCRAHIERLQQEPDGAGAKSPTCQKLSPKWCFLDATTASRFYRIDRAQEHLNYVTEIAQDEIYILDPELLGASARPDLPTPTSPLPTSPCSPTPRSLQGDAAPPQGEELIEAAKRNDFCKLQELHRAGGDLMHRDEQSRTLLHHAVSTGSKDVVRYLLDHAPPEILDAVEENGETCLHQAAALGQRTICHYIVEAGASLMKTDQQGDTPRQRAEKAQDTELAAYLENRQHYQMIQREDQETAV

For the molecule `F/C(=C\c1ccc(Oc2ccccc2F)c(C(F)(F)F)c1N1CCCC2(CCN(CC3CC3)CC2)C1)c1cncc(-c2cnsc2)n1` [Example 56, (Z)-4-(6-(2-(2-(9-(Cyclopropylmethyl)-2,9-diazaspiro[5.5]undecan-2-yl)-4-(2-fluorophenoxy)-3-(trifluoromethyl)phenyl)-1-fluorovinyl)pyrazin-2-yl)isothiazole], the IC50 on DGKα and on DGKζ was not above 0.02 µM throughout.

With `F/C(=C\c1ccc(Oc2ccccc2F)c(C(F)(F)F)c1N1CCCC2(CCN(CC3CC3)CC2)C1)c1cncc(N2CC(F)(F)C2)n1` [Example 57, (Z)-9-(Cyclopropylmethyl)-2-(6-(2-(6-(3,3-difluoroazetidin-1-yl)pyrazin-2-yl)-2-fluorovinyl)-3-(2-fluorophenoxy)-2-(trifluoromethyl)phenyl)-2,9-diazaspiro[5.5]undecane], the IC50 on DGKα and on DGKζ was not above 0.02 µM each time.

Consider `CCN1CCC2(CCCN(c3c(/C=C(\F)c4cncc(N5CCC(F)(F)C5)n4)ccc(Oc4ccccc4F)c3C(F)(F)F)C2)CC1` [Example 58, (Z)-2-(6-(2-(6-(3,3-Difluoropyrrolidin-1-yl)pyrazin-2-yl)-2-fluorovinyl)-3-(2-fluorophenoxy)-2-(trifluoromethyl)phenyl)-9-ethyl-2,9-diazaspiro[5.5]undecane], for which the IC50 at DGKα and on DGKζ was not above 0.02 µM throughout.

In the case of `F/C(=C\c1ccc(Oc2ccccc2F)c(C(F)(F)F)c1N1CCCC2(CCN(CC3CC3)CC2)C1)c1cncc(N2CCC(F)(F)C2)n1` [Example 59, (Z)-9-(Cyclopropylmethyl)-2-(6-(2-(6-(3,3-difluoropyrrolidin-1-yl)pyrazin-2-yl)-2-fluorovinyl)-3-(2-fluorophenoxy)-2-(trifluoromethyl)phenyl)-2,9-diazaspiro[5.5]undecane], the IC50 on DGKα and on DGKζ was not above 0.02 µM throughout.
